Read-outs that look alike come from different tables or passages of the source.
Tests used:
[1] = tested on: P. falciparum ABS; conditions: cited from earlier work; for IC50: read-out: Pf 3D7 Pbox IC50; for EC50: ChEMBL Data
[2] = tested on: HepG2; conditions: cited from earlier work; for HepG2 PBox CC20 μMc: ref Pbox supporting information
[3] = tested on: liver stage; conditions: cited from earlier work
[4] = tested on: NF54-pfs16-LUC-GFP stage IV gametocytes; assay: Plasmodium falciparum late stage gametocyte (LSG) image-based assay; assay type: cell-based; conditions: Plasmodium falciparum
[5] = tested on: Plasmodium falciparum 3D7 asexual blood stage; assay: microbe, parasite or virus in culture
[6] = tested on: HEK293 cells; assay: HEK293 resazurin cell cytotoxicity assay; conditions: Homo sapiens
[7] = tested on: T. b. brucei 427 bloodstream trypanosomes; assay: T. b. brucei resazurin viability assay; assay type: cell-based, Trypanosoma brucei brucei; conditions: Trypanosoma brucei; read-out: T b.brucei Discovery Biology IC50
[8] = tested on: T. cruzi intracellular amastigotes; assay: Intracellular anti-Trypanosoma cruzi image-based assay (amastigotes); assay type: cell-based; conditions: for Emax / IC50: Trypanosoma cruzi; for Emax: PBox kinetoplastid set compounds active against T. cruzi alone, read-out: Emax against T. cruzi (subefficacious effect); for IC50: intracellular amastigotes
[9] = tested on: T. cruzi C4 β-galactosidase reporter parasite in MRC 5SV2 host cells; conditions: ref Pbox supporting information; read-out: T. cruzi Pbox IC50; cited from earlier work
[10] = tested on: L. donovani MHOM/IN/80/DD8 intracellular amastigotes; assay: Leishmania donovani intracellular amastigote assay in THP-1 cells; assay type: cell-based; conditions: Leishmania donovani, THP-1, read-out: L, donovani Discovery Biology IC50 µM
[11] = P. falciparum 3D7, ref PBox supporting information
[12] = read-out: HepG2 PBox CC50 µM, ref PBox supporting information
[13] = ref Pbox supporting information
[14] = TCMDC, read-out: TCMDC (ref 93) EX50
[15] = Pf 3D7, ref Pathogen Box supporting information
[16] = read-out: HepG2 PBox CC50 µM, HepG2 CC50, ref Pathogen Box supporting information
[17] = liver stage, ref Pathogen Box supporting information, read-out: LIVER STAGE Pbox IC50
[18] = P. falciparum, read-out: TCMDC (ref 93) EX50
[19] = NF54, read-out: Pf Stage IV GAMS Discovery Biology IC50 µM, stage IV gametocytes
[20] = 3D7, read-out: Pf 3D7 Discovery Biology IC50 µM, P. falciparum 3D7 asexual blood stage
[21] = HEK293, read-out: HEK % Inhibition 20uM/IC50 Discovery Biology
[22] = ref PBox supporting information
[23] = read-out: T cruzi Discovery Biology IC50
[24] = NF54, read-out: Antiplasmodial IC50 (GAM / LSG), PBox compounds, stage IV gametocytes, single determination
[25] = read-out: HepG2 PBox CC50 µM, HepG2 cytotoxicity, ref PBox supporting information
[26] = 3D7, read-out: Antiplasmodial IC50 (ABS), PBox compounds, P. falciparum 3D7
[27] = 3D7, read-out: activity against P. falciparum (novel antiplasmodial actives of the tuberculosis set)
[28] = NITD, read-out: NITD (ref 94) EC50
[29] = NF54, read-out: Pf Stage IV GAMS Discovery Biology IC50 µM, stage IV gametocytes, Discovery Biology
[30] = 3D7, read-out: Pf 3D7 Discovery Biology IC50 µM, P. falciparum 3D7 asexual blood stage, Discovery Biology
[31] = HEK293, read-out: HEK % Discovery Biology IC50 uM
[32] = PBox compounds, 48 h exposure, read-out: IC50 T. cruzi (Discovery Biology)

CN1CCN(c2nccc3nc(-c4ccc(F)c(F)c4)[nH]c23)CC1 [MMV676260]
IC50 [1, 11]: 1130 nM | CC50 [2, 12]: > 10 µM | IC50 [3, 13]: > 10000 nM

O=C(Nc1ccc(N2CCNCC2)nc1)c1oc(-c2ccccc2)nc1C(F)(F)F [MMV024937]
EC50 [1, 14]: 980 nM | IC50 [1, 15]: 1220 nM | CC50 [2, 16]: > 10 µM | IC50 [3, 17]: 2550 nM

C[C@H](C(N)=O)N1CCCC[C@H]1c1ccc(OCc2cccc(F)c2)cc1 [MMV676269]
EC50 [1, 18]: 990 nM | IC50 [1, 11]: > 2000 nM | CC50 [2, 12]: > 10 µM | IC50 [3, 13]: 1360 nM

CS(=O)(=O)c1ccc(C(=O)N(CC2CCCO2)c2nc3ccccc3s2)cc1[N+](=O)[O-] (centres unmarked) [MMV688761]
IC50 [4, 19]: 0.9 µM | HepG2 PBox CC20 μMc [2]: 6.9 µM | IC50 [5, 20]: 4.08 µM | inhibition at 20 µM [6, 21]: 42% | IC50 [7]: 3.49 µM

Cc1ccc(NC(=O)c2cc(S(=O)(=O)NC(C)(C)C)ccc2C)nc1 [MMV020289]
EC50 [1, 14]: 760 nM | IC50 [1, 15]: 930 nM | CC50 [2, 16]: > 7.5 µM | IC50 [3, 17]: 7350 nM

FC(F)(F)c1ccc(N(c2cccnc2)C2CCN(c3ccc(C(F)(F)F)cn3)CC2)cc1 [MMV689243]
HepG2 PBox CC20 [2, 22]: 25.8 µM | IC50 [6, 21]: > 20 µM | Emax [8]: < 100% | IC50 [8, 23]: 700 nM | IC50 [9]: 15 nM

COc1cccc(-c2nc3c(N4CCCC4)cccc3n2CC2CCCN2)n1 (centres unmarked) [MMV687703]
IC50 [4, 24]: 3.83 µM | CC50 [2, 25]: 25 µM | IC50 [5, 26]: 1.33 µM | IC50 [5, 27]: < 2 µM | inhibition at 20 µM [6, 21]: 76%

COc1cccc(-c2cc3c(Nc4cccnc4)nccc3[nH]2)c1 [MMV392832]
IC50 [1, 11]: 1280 nM | CC50 [2, 12]: > 10 µM | IC50 [3, 13]: > 10000 nM

CCOc1ccccc1NC(C)C(=O)Nc1cc(C(F)(F)F)ccc1N1CCOCC1 (centres unmarked) [MMV407834]
IC50 [1, 11]: 420 nM | CC50 [2, 12]: > 10 µM | IC50 [3, 13]: > 10000 nM

O=C1Nc2ccc(Br)cc2C12NCCc1c2[nH]c2ccccc12 (centres unmarked) [MMV006239]
EC50 [1, 28]: 200 nM | IC50 [1, 15]: 510 nM | CC50 [2, 16]: > 10 µM | IC50 [3, 17]: > 10000 nM

O=C(Nc1ccc(C(F)(F)F)c(C(F)(F)F)c1)c1cc(Cl)ccc1O [MMV687807]
IC50 [4, 29]: 5.07 µM | CC50 [2, 25]: 0.65 µM | IC50 [5, 30]: 1.82 µM | IC50 ([10]; Discovery Biology, some values carry an asterisk (not explained in the part shown)): 5.06 µM | IC50 [6, 31]: 1.99 µM | IC50 [7]: 0.66 µM

O=C(NC1CCN(c2ccnc3ccccc23)C1)c1cccc(C(F)(F)F)c1 (centres unmarked) [MMV023388]
EC50 [1, 14]: 900 nM | IC50 [1, 15]: 710 nM | CC50 [2, 16]: > 10 µM | IC50 [3, 17]: 6540 nM

O=C(Nc1cccc(Cl)c1)c1cnc(N2CCN(c3ccncc3)CC2)c(Cl)c1 [MMV024406]
EC50 [1, 14]: 960 nM | IC50 [1, 15]: 830 nM | CC50 [2, 16]: > 10 µM | IC50 [3, 17]: 2350 nM

COc1ccc(CN2CCOc3ccc(C(C)(O)CN(C)C)cc3C2)cc1C (centres unmarked) [MMV008439]
EC50 [1, 28]: 820 nM | IC50 [1, 15]: > 2000 nM | CC50 [2, 16]: > 10 µM | IC50 [3, 17]: 930 nM

Cc1ccc(Oc2ccc(NC(=O)CNc3ccccc3N3CCCC3=O)cc2)cc1 [MMV020512]
EC50 [1, 14]: 370 nM | IC50 [1, 15]: 480 nM | CC50 [2, 16]: 9.8 µM | IC50 [3, 17]: 9100 nM

Cc1cccc(C(=O)Nc2ccnc(N(C)C3CCN(CC(C)C)CC3)c2)c1 [MMV024829]
EC50 [1, 14]: 870 nM | IC50 [1, 15]: 2100 nM | CC50 [2]: > 10 µM | IC50 [3, 17]: > 10000 nM

O=C(Nc1nc(-c2ccccn2)cs1)c1cncn1-c1ccccc1 [MMV676512]
CC50 [2, 25]: 3.8 µM | IC50 [6, 31]: 2.83 µM | IC50 ([8]; Discovery Biology, read-out: T cruzi Discovery Biology IC50): 4120 nM | IC50 [7]: 2.87 µM

Nc1ccc(C(=O)Nc2ccc(-c3nc4ccccc4o3)cc2)cc1 [MMV007920]
EC50 [1, 28]: 940 nM | IC50 [1, 15]: 1550 nM | CC50 [2, 16]: > 10 µM | IC50 [3, 17]: > 10000 nM

O=C1N(Cc2cc3ccccc3s2)CC2CN(Cc3ccccc3)CCN12 (centres unmarked) [MMV084603]
EC50 ([1]; P. falciparum, read-out: NITD (ref 94) EC50): 440 nM | IC50 [1, 11]: 1160 nM | CC50 [2, 12]: > 10 µM | IC50 [3, 13]: 200 nM

c1csc(-c2cnc3sc(NCC4CCOCC4)nn23)c1 [MMV010764]
IC50 [1, 15]: 1370 nM | CC50 [2, 16]: > 10 µM | IC50 [3, 17]: > 10000 nM

NS(=O)(=O)c1cncc(-c2ccc3nccc(-c4cn[nH]c4)c3n2)c1 [MMV024101]
EC50 [1, 14]: 530 nM | IC50 [1, 15]: 600 nM | IC50 [3, 17]: 2170 nM

Cc1cc(C)n2nc(C(=O)Nc3cc(C(F)(F)F)ccc3N3CCOCC3)nc2n1 [MMV019087]
EC50 [1, 14]: 120 nM | IC50 [1, 15]: 220 nM | CC50 [2, 16]: > 10 µM | IC50 [3, 17]: 1210 nM

CC(Oc1ccccc1)C(=O)Nc1nc(-c2ccccn2)cs1 (centres unmarked) [MMV676411]
IC50 [4, 29]: 1.92 µM | CC50 [2, 25]: 29.3 µM | IC50 [5, 30]: 5 µM | inhibition at 20 µM [6, 21]: 81% | IC50 [7]: 3.22 µM

Cc1cnc(CCNC(=O)c2cc(-c3ccc(Cl)cc3)cs2)[nH]1 [MMV676350]
EC50 [1, 18]: 240 nM | IC50 [1, 11]: 810 nM | CC50 [2, 12]: > 10 µM | IC50 [3, 13]: 8580 nM

O=C1COCc2ccc(Br)cc2N1Cc1ccc(C(F)(F)F)cc1 [MMV032995]
IC50 [1, 11]: 960 nM | IC50 [3, 13]: 2000 nM

COc1ccc(-c2nn(C(C)C)c3ncnc(N)c23)cc1OC [MMV675993]
IC50 ([4]; NF54, read-out: Pf Stage IV GAMS Discovery Biology IC50, stage IV gametocytes): 1.95 µM | HepG2 PBox CC20 [2, 22]: 1.6 µM | IC50 ([5]; 3D7, read-out: Pf 3D7 Discovery Biology IC50, P. falciparum 3D7 asexual blood stage): 1.07 µM | inhibition at 20 µM [6, 21]: 73%

CCC(Sc1nc2ccccc2o1)C(=O)Nc1nccs1 (centres unmarked) [MMV676383]
IC50 [4, 24]: 1.37 µM | CC50 [2, 25]: 13 µM | IC50 [5, 26]: 4.43 µM | IC50 [5, 27]: 4 to 5 µM | inhibition at 20 µM [6, 21]: 88%

CNc1cc(C)nc(C2CN(C(=O)c3n[nH]c4ccccc34)CCO2)c1 (centres unmarked) [MMV689709]
IC50 [6, 21]: > 20 µM | IC50 [8, 32]: 3320 nM | IC50 [9]: 3890 nM

CC(C)n1nc(-c2cc3c(Cl)cccc3[nH]2)c2c(N)ncnc21 [MMV688417]
inhibition at 20 µM [6, 21]: 83% | activity against T. cruzi in the Discovery Biology assay [8]: subefficacious activity | IC50 [8, 32]: 1430 nM | IC50 [7]: 6.1 µM

O=C([C@@H](c1ccc(Cl)cc1)c1cccnc1)N1CCN(c2ccc(C(F)(F)F)cc2)CC1 [MMV689244]
HepG2 PBox CC20 [2, 22]: 19.0 µM | IC50 [6, 21]: > 20 µM | Emax [8]: < 100% | IC50 [8, 23]: 120 nM | IC50 [9]: 7.5 nM

CNc1nnc(Sc2cnn(-c3ccccc3)c(=O)c2Cl)s1 [MMV688763]
IC50 [4, 19]: 5.33 µM | HepG2 PBox CC20 μMc [2]: 1.6 µM | IC50 [5, 20]: 3.36 µM | IC50 ([10]; intracellular amastigotes, values marked *): 2.11 µM | IC50 [6, 31]: 6.32 µM

Source: article PMC5571359, “Screening the Medicines for Malaria Venture Pathogen Box across Multiple Pathogens Reclassifies Starting Points for Open-Source Drug Discovery” (Antimicrobial Agents and Chemotherapy, 2017)
